Consider 21 molecules from US20090181986A1, “SUBSTITUTED HETEROCYCLIC COMPOUNDS” (priority 2007, published 2009).

In data set [1] the target is wild-type human cardiac sodium channel, hNav1.5 (Homo sapiens, UniProt Q14524). Nature of the data set: Late INa screening assay (PatchXpress whole cell patch clamp, late current generated with Tefluthrin or ATX II). In kind it is cell-based. To be noted: for Late INa % blk / inhibition at 10 µM: test compound at 10 μM; for inhibition at 10 µM: read-out: Late INa % blk; for effect on late sodium current: late INa assay, compounds tested at 10 μM. On the procedure:
The late sodium current (Late INa) and peak sodium current (Peak INa) assays are performed on an automated electrophysiology platform, PatchXpress 7000A (MDS Analytical Technologies, Sunnyvale, Calif.), which uses the whole cell patch clump technique to measure currents through the cell membrane of up to 16 cells at a time. The assay uses an HEK293 (human embryonic kidney) cell line heterologously expressing the wild-type human cardiac sodium channel, hNav1.5, purchased from Millipore (Billerica, Mass.). No beta subunits were coexpressed with the Na channel alpha subunit. […] Experiments are carried out at 24-27° C.
For both the Late INa and Peak INa assays, series resistance compensation is set to 50% and whole-cell compensation is performed automatically. […] Currents through open sodium channels are automatically recorded and stored in the DataXpress2 database (MDS Analytical Technologies, Sunnyvale, Calif.). Analysis is performed using DataXpress2 analysis software and data are compiled in Excel.
Compound stocks are routinely made in glass vials to 10 mM in dimethyl sulfoxide (DMSO). In some cases, when compounds are not soluble in DMSO, they are made in 100% ethanol. Stocks are sonicated as necessary. The extracellular solution for screening Late INa is composed of: 140 mM NaCl, 4 mM KCl, 1.8 mM CaCl2, 0.75 mM MgCl2, and 5 mM HEPES with pH adjusted to 7.4 using NaOH. The extracellular solution for screening Peak INa is composed of: 20 mM NaCl, 120 mM N-methyl-D glucamine, 4 mM KCl, 1.8 mM CaCl2, 0.75 mM MgCl2, and 5 mM HEPES with pH adjusted to 7.4 using HCl. The intracellular solution used to perfuse the inside of the cells for both the Late INa and Peak INa assays contains: 120 mM CsF, […], 5 mM EGTA, 5 mM HEPES and pH adjusted to 7.4 with CsOH. […] The ONa extracellular solution used at the end of each experiment for the Late INa and Peak INa assays to measure baseline current contains: 140 mM N-methyl-D-glucamine; 4 mM KCl; 1.8 mM CaCl2; 0.75 mM MgCl2; 5 mM HEPES and pH was adjusted to 7.4 with HCl.
For the Late INa assay, sodium channels are activated every 10 seconds (0.1 Hz) by depolarizing the cell membrane to −20 mV for 250 milliseconds (ms) from a holding potential of −120 mV.
All compounds are tested to determine their activity in blocking the late sodium current. Late INa current is generated by adding 10 μM Tefluthrin (pyrethroid) to the extracellular solution while recording Na currents. […] For some experiments, 50 nM ATX II (sea anemone toxin), another late INa activator, was used to generate the late component. […] Baseline current in the absence of Na^+ ions is measured at the end of each experiment (after two additions of 0 Na solution—see above) and is used to calculate the percent block by compound.

Another data set concerns the target hERG potassium channel (Homo sapiens, UniProt Q12809). Nature of the data set: hERG screening assay (PatchXpress patch clamp, CHO cells). Background: The hERG channel carries a current that helps repolarise heart muscle cells.
The test system of the next data set is L-type calcium channel. The data set is described as follows: L-type calcium channel activity well-plate assay (IMR-32 cells, Ca-4 dye, FlexStation). It is filed as cell-based, human. The protocol:
Cell Culture: IMR-32 (human neuroblastoma) cells were obtained from The American Type Culture Collection. The cells were maintained in MEM supplemented with 10% fetal bovine serum, 2 mM of L-glutamine, 100 IU/ml of penicillin, 50 μg/ml of streptomycin, 1% of sodium pyruvate, 1% of sodium bicarbonate and 1% of non-essential amino acid. […] Culture medium was changed every two days and cells were recultivated when they reached 70-80% confluent.
Assay: IMR-32 cells were seeded on a Microtest 96-well Assay Plate (BD FALCON™) at a density of 200,000 cells/well in 200 μl culture medium for overnight. The culture medium was removed, and replaced by 120 μl Ca-4 dye (MDS Analytical Technologies, Sunnyvale, Calif.) in HBSS (1× Hank's Balanced Salt solution plus 20 mM HEPES, pH 7.4) containing 2 mM probenecid. Cells were then incubated for 1 hour at 37° in incubator. Testing compounds were diluted from 5 μM-50 μM in HBSS, and 40 μl were added in cells before assay. […] The inhibition of L-type calcium channel activity by compounds was then calculated.

Sequence of wild-type human cardiac sodium channel, hNav1.5 (Q14524 whole entry): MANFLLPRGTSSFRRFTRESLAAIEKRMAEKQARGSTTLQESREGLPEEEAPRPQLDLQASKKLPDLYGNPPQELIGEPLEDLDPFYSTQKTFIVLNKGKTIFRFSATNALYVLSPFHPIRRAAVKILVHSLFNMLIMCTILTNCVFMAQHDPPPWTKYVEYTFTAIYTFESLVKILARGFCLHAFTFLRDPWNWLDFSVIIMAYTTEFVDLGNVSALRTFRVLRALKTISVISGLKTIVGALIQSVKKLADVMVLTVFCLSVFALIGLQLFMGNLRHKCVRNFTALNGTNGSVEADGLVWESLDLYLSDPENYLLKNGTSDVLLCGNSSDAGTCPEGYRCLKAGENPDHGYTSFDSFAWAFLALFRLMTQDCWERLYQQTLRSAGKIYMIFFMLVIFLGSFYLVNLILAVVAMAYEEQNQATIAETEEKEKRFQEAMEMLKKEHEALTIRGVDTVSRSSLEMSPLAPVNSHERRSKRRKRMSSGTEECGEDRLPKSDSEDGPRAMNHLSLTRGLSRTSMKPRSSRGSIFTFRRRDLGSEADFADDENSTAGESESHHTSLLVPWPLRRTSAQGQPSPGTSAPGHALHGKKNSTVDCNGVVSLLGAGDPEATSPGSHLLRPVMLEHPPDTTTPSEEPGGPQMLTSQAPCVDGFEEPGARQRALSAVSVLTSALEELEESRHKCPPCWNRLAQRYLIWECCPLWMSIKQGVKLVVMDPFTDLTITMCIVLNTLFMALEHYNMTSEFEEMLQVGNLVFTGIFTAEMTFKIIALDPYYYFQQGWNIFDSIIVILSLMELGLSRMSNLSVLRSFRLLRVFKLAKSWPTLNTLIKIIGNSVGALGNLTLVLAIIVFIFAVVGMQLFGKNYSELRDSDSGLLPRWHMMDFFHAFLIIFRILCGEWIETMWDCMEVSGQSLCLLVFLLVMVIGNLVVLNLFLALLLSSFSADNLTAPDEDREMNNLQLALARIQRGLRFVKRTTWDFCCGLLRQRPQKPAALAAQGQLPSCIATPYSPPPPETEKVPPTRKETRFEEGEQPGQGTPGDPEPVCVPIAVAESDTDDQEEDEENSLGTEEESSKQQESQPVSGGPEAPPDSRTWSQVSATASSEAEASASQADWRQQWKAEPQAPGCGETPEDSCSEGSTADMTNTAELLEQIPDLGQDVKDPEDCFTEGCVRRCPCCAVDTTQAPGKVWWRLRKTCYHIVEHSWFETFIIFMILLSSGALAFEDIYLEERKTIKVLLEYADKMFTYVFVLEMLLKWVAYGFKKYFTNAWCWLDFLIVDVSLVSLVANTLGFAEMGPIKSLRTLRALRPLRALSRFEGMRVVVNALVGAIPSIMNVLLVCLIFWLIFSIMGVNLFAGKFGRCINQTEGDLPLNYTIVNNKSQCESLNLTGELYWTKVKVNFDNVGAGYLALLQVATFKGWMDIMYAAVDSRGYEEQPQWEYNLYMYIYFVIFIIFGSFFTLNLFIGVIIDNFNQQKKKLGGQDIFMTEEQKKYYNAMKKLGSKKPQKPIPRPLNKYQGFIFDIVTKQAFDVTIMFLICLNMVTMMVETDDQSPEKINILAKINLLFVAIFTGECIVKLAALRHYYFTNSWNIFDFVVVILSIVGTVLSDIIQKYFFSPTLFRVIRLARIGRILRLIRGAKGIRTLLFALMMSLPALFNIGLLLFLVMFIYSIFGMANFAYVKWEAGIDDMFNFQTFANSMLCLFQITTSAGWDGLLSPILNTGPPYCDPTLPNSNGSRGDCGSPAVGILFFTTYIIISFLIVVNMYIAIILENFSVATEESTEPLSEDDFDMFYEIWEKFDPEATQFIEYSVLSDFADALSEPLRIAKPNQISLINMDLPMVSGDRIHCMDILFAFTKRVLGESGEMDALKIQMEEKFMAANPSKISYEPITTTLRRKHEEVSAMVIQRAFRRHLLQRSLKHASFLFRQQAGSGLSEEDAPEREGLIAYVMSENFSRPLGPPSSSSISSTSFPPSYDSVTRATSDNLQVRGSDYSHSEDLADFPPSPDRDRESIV
Sequence of hERG potassium channel (Q12809 whole entry): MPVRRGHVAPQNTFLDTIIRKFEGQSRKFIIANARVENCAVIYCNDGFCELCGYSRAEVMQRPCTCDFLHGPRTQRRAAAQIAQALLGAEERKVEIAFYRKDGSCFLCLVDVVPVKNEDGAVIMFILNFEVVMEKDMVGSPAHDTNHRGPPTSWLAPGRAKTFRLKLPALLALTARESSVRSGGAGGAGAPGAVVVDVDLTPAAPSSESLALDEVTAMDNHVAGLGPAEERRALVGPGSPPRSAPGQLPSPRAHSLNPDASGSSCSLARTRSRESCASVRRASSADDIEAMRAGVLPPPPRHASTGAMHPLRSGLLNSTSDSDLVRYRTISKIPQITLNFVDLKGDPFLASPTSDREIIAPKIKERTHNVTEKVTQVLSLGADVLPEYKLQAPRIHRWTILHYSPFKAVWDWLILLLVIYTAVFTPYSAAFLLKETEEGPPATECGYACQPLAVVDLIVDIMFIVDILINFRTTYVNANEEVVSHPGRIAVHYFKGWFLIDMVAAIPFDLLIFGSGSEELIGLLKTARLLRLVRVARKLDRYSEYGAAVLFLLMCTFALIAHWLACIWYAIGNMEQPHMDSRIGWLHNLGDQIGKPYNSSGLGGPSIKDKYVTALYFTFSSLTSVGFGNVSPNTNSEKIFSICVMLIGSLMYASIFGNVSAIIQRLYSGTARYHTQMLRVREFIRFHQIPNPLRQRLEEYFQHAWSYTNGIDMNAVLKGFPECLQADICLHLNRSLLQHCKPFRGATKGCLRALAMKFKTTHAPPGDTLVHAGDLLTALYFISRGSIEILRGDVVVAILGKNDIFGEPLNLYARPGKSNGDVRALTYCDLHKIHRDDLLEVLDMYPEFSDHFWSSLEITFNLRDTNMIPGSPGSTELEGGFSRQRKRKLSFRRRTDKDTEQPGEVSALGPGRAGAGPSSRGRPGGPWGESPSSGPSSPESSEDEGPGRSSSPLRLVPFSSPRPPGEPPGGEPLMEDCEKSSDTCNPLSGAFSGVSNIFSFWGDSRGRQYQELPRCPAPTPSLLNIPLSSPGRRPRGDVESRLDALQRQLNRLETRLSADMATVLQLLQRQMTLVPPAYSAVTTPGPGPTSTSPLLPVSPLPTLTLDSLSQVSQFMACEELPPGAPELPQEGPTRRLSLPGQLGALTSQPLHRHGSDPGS
Experimental for hERG potassium channel: Compounds were screened to test their activity in blocking the hERG potassium channel. The hERG channel is heterologously expressed in a CHO (Chinese Hamster Ovary) cell line. Cells are maintained with standard tissue culture procedures and stable channel expression is maintained with 500 μg/ml G418 in the culture medium. Cells are harvested for testing on the PatchXpress automated patch clamp with Acctumax (Innovative Cell Technologies, San Diego, Calif.) to isolate single cells.
The following solutions are used for electrophysiological recordings. The external solution contains: 2 mM CaCl2; 2 mM MgCl2; 4 mM KCl; 150 mM NaCl; 10 mM Glucose; 10 mM HEPES (pH 7.4 with 1M NaOH, osmolarity).
hERG channels are activated when the voltage is stepped to +20 mV from the −80 mV holding potential (see FIG. 3). During a 5 second step at +20 mV, the channels activate and then largely inactivate, so the currents are relatively small. Upon returning to −50 mV from +20 mV, hERG currents transiently become much larger as inactivation is rapidly removed and then the channel closes. The first step to −50 mV for 300 ms is used as a baseline for measuring the peak amplitude during the step to −50 mV after channel activation. The peak current at −50 mV is measured both under control conditions and after addition of compound.
All compounds are prepared as 10 mM DMSO stocks in glass vials. Stock solutions are mixed by vigorous vortexing and sonication for about 2 minutes at room temperature. For testing, compounds are diluted in glass vials using an intermediate dilution step in pure DMSO and then further diluted to working concentrations in external solution. Dilutions are prepared no longer than 20 minutes before use.
After achieving the whole-cell configuration, cells are monitored for 90 seconds to assess stability and washed with external solution for 66 seconds. The voltage protocol described above is then applied to the cells every 12 seconds and throughout the whole procedure. Only cells with stable recording parameters and meeting specified health criteria are allowed to enter the compound addition procedure.
External solution containing 0.1% DMSO (vehicle) is applied to the cells first to establish the control peak current amplitude. After allowing the current to stabilize for 3 to 5 minutes, 1 μM and then 10 μM test compounds are applied. Each compound concentration is added 4 times and cells are kept in test solution until the effect of the compound reaches steady state or for a maximum of 12 minutes. […] Washout in the external solution compartment is performed until the recovery of the current reaches steady state. Data are analyzed using DataXpress, Clampfit (Molecular Devices, Inc., Sunnyvale) and Origin 7 (Originlab Corp.)

As to “H-indol-5-yl)phenyl)-5-methyl-4,7-dihydrotetrazolo[1,5-a]pyrimidine-6-carboxylate [PT-505]”, in data set [1], the “Late INa % blk” value stood at 69.6%. `CC1=C(C(=O)OCc2ccccc2Br)C(c2c(Cl)cccc2Cl)n2nnnc2N1` (stereo not shown) [PT-531, 2-bromobenzyl 7-(2,6-dichlorophenyl)-5-methyl-4,7-dihydrotetrazolo[1,5-a]pyrimidine-6-carboxylate]: in data set [1], the inhibition at 10 µM turned out to be 51.2%. On the same count and under the same terms, the figure for `CC1=C(C(=O)O[C@@H](C)c2ccccc2)C(c2cc3ccccc3s2)n2nnnc2N1` (stereo partly drawn) [PT-057, (S)-1-phenylethyl 7-(benzo[b]thiophen-2-yl)-5-methyl-4,7-dihydrotetrazolo[1,5-a]pyrimidine-6-carboxylate] is 71%. For `CC1=C(C(=O)O[C@@H](C)c2ccccc2)C(c2cc3ccccc3o2)n2nnnc2N1` (stereo partly drawn) [PT-059, (S)-1-phenylethyl 7-(benzofuran-2-yl)-5-methyl-4,7-dihydrotetrazolo[1,5-a]pyrimidine-6-carboxylate], at hERG potassium channel, the “hERG Patch Clamp hERG % blk (1 μM test cmpd)” value stood at 10% and the “hERG Patch Clamp hERG % blk (10 μM test cmpd)” value was 66.5%. For the same molecule, in data set [1], the “Late INa % blk” value is listed as 57.7%. Regarding `CC1=C(C(=O)O[C@@H](C)c2ccccc2)C(c2cc3ccccc3s2)n2nnnc2N1` (stereo partly drawn) [PT-056, (S)-1-phenylethyl 7-(benzo[b]thiophen-2-yl)-5-methyl-4,7-dihydrotetrazolo[1,5-a]pyrimidine-6-carboxylate], the “Late INa % blk” value in data set [1] is reported as 7.8%.

As to “H-furo[3,4-e]pyrazolo[3,4-b]pyridin-5(4H)-one [PT-079]”, at hERG potassium channel, the “hERG Patch Clamp hERG % blk (1 μM test cmpd)” value came out at 57.5% and the “hERG Patch Clamp hERG % blk (10 μM test cmpd)” value was found to be 96.5%. In data set [1], the “Late INa % blk” value is on record as 49%. Consider `CC1=C(C(=O)N2CCC(c3ccc(C(N)=O)cc3)CC2)C(c2cccc3ccccc23)C2=C(CCCC2=O)N1` (stereo not shown) [PT-287, 4-(1-(2-methyl-4-(naphthalen-1-yl)-5-oxo-1,4,5,6,7,8-hexahydroquinoline-3-carbonyl)piperidin-4-yl)benzamide], for which the inhibition at 10 µM in data set [1] was determined as 8.6%. In the case of `COC(=O)C1=C(C)Nc2nnnn2C1c1ccccc1` (stereo not shown) [PT-514, methyl 5-methyl-7-phenyl-4,7-dihydrotetrazolo[1,5-a]pyrimidine-6-carboxylate], the inhibition at 10 µM in data set [1] came out at 6%. On the same count and under the same terms, next, `CC1=C(C(=O)OC(C)C)C(c2c[nH]nc2-c2ccc(F)cc2)C(C(=O)OC(C)C)=C(C)N1` [PT-128, diisopropyl 4-(3-(4-fluorophenyl)-1H-pyrazol-4-yl)-2,6-dimethyl-1,4-dihydropyridine-3,5-dicarboxylate]: 34.1%. Turning to “2-methyl-1-phenylpropan-2-yl 5-methyl-7-(naphthalen-1-yl)-4,7-dihydrotetrazolo[1,5-a]pyrimidine-6- [PT-264]”, the “Late INa % blk” value in data set [1] was 53.5%. In the case of `CC1=C(C(=O)N2CCC(c3ccccc3)CC2)C(c2ccsc2)C2=C(CCCC2=O)N1` (stereo not shown) [PT-163, 2-methyl-3-(4-phenylpiperidine-1-carbonyl)-4-(thiophen-3-yl)-4,6,7,8-tetrahydroquinolin-5(1H)-one], at hERG potassium channel, the “hERG Patch Clamp hERG % blk (1 μM test cmpd)” value was determined as 15% and the “hERG Patch Clamp hERG % blk (10 μM test cmpd)” value is recorded as 53.5%. Further, in the data set on L-type calcium channel, the “CaL Plate Assay % blk (1 μM test cmpd)” value was found to be 5% and the “CaL Plate Assay % blk (10 μM test cmpd)” value came to 17%. In data set [1], the “effect on late sodium current” value is given as “potentiated late sodium current”.

As to `CC1=C(C(=O)Nc2c(C)cccc2C)C(c2ccsc2)C2=C(CCCC2=O)N1` (stereo not shown) [PT-180, N-(2,6-dimethylphenyl)-2-methyl-5-oxo-4-(thiophen-3-yl)-1,4,5,6,7,8-hexahydroquinoline-3-carboxamide], the inhibition at 10 µM in data set [1] is -4.7%.

Turning to `COC(=O)c1ccc(C2CCN(C(=O)C3=C(C)NC4=C(C(=O)CCC4)C3c3cccc4ccccc34)CC2)cc1` (stereo not shown) [PT-535, methyl 4-(1-(2-methyl-4-(naphthalen-1-yl)-5-oxo-1,4,5,6,7,8-hexahydroquinoline-3-carbonyl)piperidin-4-yl)benzoate], the inhibition at 10 µM in data set [1] is 4.2%. `COC(=O)C1=C(C)N(CC(=O)O)c2nnnn2C1c1sc2ccccc2c1Br` (stereo not shown) [PT-533, 2-(7-(3-bromobenzo[b]thiopben-2-yl)-6-(methoxycarbonyl)-5-methyltetrazolo[1,5-a]pyrimidin-4(7H)-yl)acetic acid]: the “Late INa % blk” value in data set [1] was 12%. With `CC1=C(C(=O)OCc2ccccc2Br)C(c2c(Cl)cccc2Cl)n2nnnc2N1Cc1nnn[nH]1` (stereo not shown) [PT-532, 2-bromobenzyl 4-((1H-tetrazol-5-yl)methyl)-7-(2,6-dichlorophenyl)-5-methyl-4,7-dihydrotetrazolo[1,5-a]pyrimidine-6-carboxylate], in data set [1], the inhibition at 10 µM worked out at 35.6%. On to `CC1=C(C(=O)N2CCN(c3ccccc3)CC2)C(c2ccsc2)C2=C(CCCC2=O)N1` (stereo not shown) [PT-166, 2-methyl-3-(4-phenylpiperazine-1-carbonyl)-4-(thiophen-3-yl)-4,6,7,8-tetrahydroquinolin-5(1H)-one], for which the “effect on late sodium current” value in data set [1] is listed as “potentiated late sodium current”. Take `CC1=C(C(=O)OCc2ccccc2)C(c2ccccc2-c2ccc(NS(C)(=O)=O)cc2)n2nnnc2N1` (stereo not shown) [PT-530, benzyl 5-methyl-7-(4′-(methylsulfonamido)biphenyl-2-yl)-4,7-dihydrotetrazolo[1,5-a]pyrimidine-6-carboxylate]: on hERG potassium channel, the “hERG Patch Clamp hERG % blk (1 μM test cmpd)” value is listed as 13% and the “hERG Patch Clamp hERG % blk (10 μM test cmpd)” value was found to be 48%. Also, the inhibition at 10 µM in data set [1] is 88.3%. On to `CC1=C(C(=O)OCCc2nnn[nH]2)C(c2cccc3ccccc23)n2nnnc2N1` (stereo not shown) [PT-247, 2-(1H-tetrazol-5-yl)ethyl 5-methyl-7-(naphthalen-1-yl)-4,7-dihydrotetrazolo[1,5-a]pyrimidine-6-carboxylate], for which, in data set [1], the inhibition at 10 µM worked out at 0.3%. On to `CC1=C(C(=O)OCc2ccc(C(F)(F)F)cc2)C(c2cccc3ccccc23)n2nnnc2N1` (stereo not shown) [PT-051, 4-(trifluoromethyl)benzyl 5-methyl-7-(naphthalen-1-yl)-4,7-dihydrotetrazolo[1,5-a]pyrimidine-6-carboxylate], for which the inhibition at 10 µM in data set [1] worked out at 16.9%. On the same count and under the same terms, the figure for `COC(=O)C1=C(C)N(Cc2nnn[nH]2)c2nnnn2C1c1sc2ccccc2c1Br` (stereo not shown) [PT-534, methyl 4-((1H-tetrazol-5-yl)methyl)-7-(3-bromobenzo[b]thiophen-2-yl)-5-methyl-4,7-dihydrotetrazolo[1,5-a]pyrimidine-6-carboxylate] is 18.2%.

As to `CC1=C(C(=O)OCc2ccccc2)C(c2sc3ccccc3c2C)n2nnnc2N1` (stereo not shown) [PT-044, benzyl 5-methyl-7-(3-methylbenzo[b]thiophen-2-yl)-4,7-dihydrotetrazolo[1,5-a]pyrimidine-6-carboxylate], on hERG potassium channel, the “hERG Patch Clamp hERG % blk (1 μM test cmpd)” value is given as 16.5% and the “hERG Patch Clamp hERG % blk (10 μM test cmpd)” value amounted to 40%. Further, in the data set with L-type calcium channel, the “CaL Plate Assay % blk (1 μM test cmpd)” value amounted to 7% and the “CaL Plate Assay % blk (10 μM test cmpd)” value is recorded as 35%.
